The source made the active and inactive calls. The rule behind the calls is not given here.
Test system: CCRIS mutagenicity, Ames/micronucleus/aberration tests
Experiment: CCRIS mutagenicity studies
[1] = Test System: AMES SALMONELLA TYPHIMURIUM, Strain/Indicator: TA98, Metabolic Activation: HAMSTER, LIVER, S-9, AROCLOR 1254 (10%), Method: PREINCUBATION
[2] = Test System: AMES SALMONELLA TYPHIMURIUM, Strain/Indicator: TA98, Metabolic Activation: NONE, Method: PREINCUBATION
[3] = Test System: AMES SALMONELLA TYPHIMURIUM, Strain/Indicator: TA98, Metabolic Activation: RAT, LIVER, S-9, AROCLOR 1254 (10%), Method: PREINCUBATION
[4] = Test System: AMES SALMONELLA TYPHIMURIUM, Strain/Indicator: TA100, Metabolic Activation: HAMSTER, LIVER, S-9, AROCLOR 1254 (10%), Method: PREINCUBATION
[5] = Test System: AMES SALMONELLA TYPHIMURIUM, Strain/Indicator: TA100, Metabolic Activation: NONE, Method: PREINCUBATION
[6] = Test System: AMES SALMONELLA TYPHIMURIUM, Strain/Indicator: TA100, Metabolic Activation: RAT, LIVER, S-9, AROCLOR 1254 (10%), Method: PREINCUBATION
[7] = Test System: AMES SALMONELLA TYPHIMURIUM, Strain/Indicator: TA1535, Metabolic Activation: HAMSTER, LIVER, S-9, AROCLOR 1254 (10%), Method: PREINCUBATION
[8] = Test System: AMES SALMONELLA TYPHIMURIUM, Strain/Indicator: TA1535, Metabolic Activation: NONE, Method: PREINCUBATION
[9] = Test System: AMES SALMONELLA TYPHIMURIUM, Strain/Indicator: TA1535, Metabolic Activation: RAT, LIVER, S-9, AROCLOR 1254 (10%), Method: PREINCUBATION
[10] = Test System: MOUSE LYMPHOMA, Strain/Indicator: L5178Y (TK+/TK-), Metabolic Activation: NONE, Method: SUSPENSION/PLATE

SMILES: C=C(Cl)CCl
- mutagenic call (End Point: IN VITRO CHROMOSOMAL ABERRATIONS, Test System: CHO-LB CELLS, Metabolic Activation: NONE): active; positive
- mutagenic call (End Point: IN VITRO CHROMOSOMAL ABERRATIONS, Test System: CHO-LB CELLS, Metabolic Activation: RAT, LIVER, S-9, AROCLOR 1254): active; positive
- mutagenic call (Test System: AMES SALMONELLA TYPHIMURIUM, Strain/Indicator: TA97, Metabolic Activation: HAMSTER, LIVER, S-9, AROCLOR 1254 (10%), Method: PREINCUBATION): active; positive
- mutagenic call (Test System: AMES SALMONELLA TYPHIMURIUM, Strain/Indicator: TA97, Metabolic Activation: NONE, Method: PREINCUBATION): active; positive
- mutagenic call (Test System: AMES SALMONELLA TYPHIMURIUM, Strain/Indicator: TA97, Metabolic Activation: RAT, LIVER, S-9, AROCLOR 1254 (10%), Method: PREINCUBATION): active; positive
- mutagenic call [1]: active; positive
- mutagenic call (Test System: AMES SALMONELLA TYPHIMURIUM, Strain/Indicator: TA98, Metabolic Activation: HAMSTER, LIVER, S-9, AROCLOR 1254, Method: STANDARD PLATE): active; positive
- mutagenic call [2]: active; positive
- mutagenic call (Test System: AMES SALMONELLA TYPHIMURIUM, Strain/Indicator: TA98, Metabolic Activation: NONE, Method: STANDARD PLATE): active; positive
- mutagenic call [3]: active; positive
- mutagenic call (Test System: AMES SALMONELLA TYPHIMURIUM, Strain/Indicator: TA98, Metabolic Activation: RAT, LIVER, S-9, AROCLOR 1254, Method: STANDARD PLATE): inactive; negative
- mutagenic call [4]: active; positive
- mutagenic call (Test System: AMES SALMONELLA TYPHIMURIUM, Strain/Indicator: TA100, Metabolic Activation: HAMSTER, LIVER, S-9, AROCLOR 1254, Method: STANDARD PLATE): active; positive
- mutagenic call [5]: active; positive
- mutagenic call (Test System: AMES SALMONELLA TYPHIMURIUM, Strain/Indicator: TA100, Metabolic Activation: NONE, Method: STANDARD PLATE): active; positive
- mutagenic call (Test System: AMES SALMONELLA TYPHIMURIUM, Strain/Indicator: TA100, Metabolic Activation: RAT, LIVER, MICROSOMES, PHENOBARBITAL, NADPH COFACTORS, Method: STANDARD PLATE): inactive; negative
- mutagenic call (Test System: AMES SALMONELLA TYPHIMURIUM, Strain/Indicator: TA100, Metabolic Activation: RAT, LIVER, MICROSOMES, PHENOBARBITAL, Method: STANDARD PLATE): inactive; negative
- mutagenic call [6]: active; positive
- mutagenic call (Test System: AMES SALMONELLA TYPHIMURIUM, Strain/Indicator: TA100, Metabolic Activation: RAT, LIVER, S-9, AROCLOR 1254, Method: STANDARD PLATE): active; positive
- mutagenic call (Test System: AMES SALMONELLA TYPHIMURIUM, Strain/Indicator: TA102, Metabolic Activation: S-9, Method: STANDARD PLATE): inactive; negative
- mutagenic call [7]: active; positive
- mutagenic call (Test System: AMES SALMONELLA TYPHIMURIUM, Strain/Indicator: TA1535, Metabolic Activation: HAMSTER, LIVER, S-9, AROCLOR 1254, Method: STANDARD PLATE): active; positive
- mutagenic call [8]: active; positive
- mutagenic call (Test System: AMES SALMONELLA TYPHIMURIUM, Strain/Indicator: TA1535, Metabolic Activation: NONE, Method: STANDARD PLATE): active; positive
- mutagenic call [9]: active; positive
- mutagenic call (Test System: AMES SALMONELLA TYPHIMURIUM, Strain/Indicator: TA1535, Metabolic Activation: RAT, LIVER, S-9, AROCLOR 1254, Method: STANDARD PLATE): active; positive
- mutagenic call (Test System: AMES SALMONELLA TYPHIMURIUM, Strain/Indicator: TA1537, Metabolic Activation: HAMSTER, LIVER, S-9, AROCLOR 1254, Method: STANDARD PLATE): inactive; negative
- mutagenic call (Test System: AMES SALMONELLA TYPHIMURIUM, Strain/Indicator: TA1537, Metabolic Activation: NONE, Method: STANDARD PLATE): inactive; negative
- mutagenic call (Test System: AMES SALMONELLA TYPHIMURIUM, Strain/Indicator: TA1537, Metabolic Activation: RAT, LIVER, S-9, AROCLOR 1254, Method: STANDARD PLATE): inactive; negative
- mutagenic call (Test System: AMES SALMONELLA TYPHIMURIUM, Strain/Indicator: TA1538, Metabolic Activation: HAMSTER, LIVER, S-9, AROCLOR 1254, Method: STANDARD PLATE): inactive; negative
- mutagenic call (Test System: AMES SALMONELLA TYPHIMURIUM, Strain/Indicator: TA1538, Metabolic Activation: NONE, Method: STANDARD PLATE): inactive; negative
- mutagenic call (Test System: AMES SALMONELLA TYPHIMURIUM, Strain/Indicator: TA1538, Metabolic Activation: RAT, LIVER, S-9, AROCLOR 1254, Method: STANDARD PLATE): inactive; negative
- mutagenic call (Test System: AMES SALMONELLA TYPHIMURIUM, Strain/Indicator: TA1978, Metabolic Activation: NONE, Method: STANDARD PLATE): active; positive
- mutagenic call (Test System: AMES SALMONELLA TYPHIMURIUM, Strain/Indicator: TA1978, Metabolic Activation: RAT, LIVER, S-9, AROCLOR 1254, Method: STANDARD PLATE): active; positive
- mutagenic call (Test System: AMES SALMONELLA TYPHIMURIUM, Strain/Indicator: TA2638, Metabolic Activation: S-9, Method: STANDARD PLATE): inactive; negative
- mutagenic call (Test System: E. COLI, Strain/Indicator: WP2 (PKM101), Metabolic Activation: S-9, Method: STANDARD PLATE): inactive; negative
- mutagenic call (Test System: E. COLI, Strain/Indicator: WP2 UVRA (PKM101), Metabolic Activation: S-9, Method: STANDARD PLATE): active; positive
- mutagenic call [10]: active; positive. reevaluation of results: positive
- mutagenic call (Test System: MOUSE LYMPHOMA, Strain/Indicator: L5178Y (TK+/TK-), Metabolic Activation: RAT, LIVER, S-9, AROCLOR 1254, Method: SUSPENSION/PLATE): active; positive. reevaluation of results: positive

SMILES: CCN(CC)C(=S)SSC(=S)N(CC)CC
- mutagenic call [1]: inactive; negative
- mutagenic call [2]: inactive; negative
- mutagenic call [3]: inactive; negative
- mutagenic call [4]: inactive; negative
- mutagenic call [5]: inactive; negative
- mutagenic call [6]: inactive; negative
- mutagenic call [7]: inactive; negative
- mutagenic call [8]: inactive; negative
- mutagenic call [9]: inactive; negative
- mutagenic call (Test System: AMES SALMONELLA TYPHIMURIUM, Strain/Indicator: TA1537, Metabolic Activation: HAMSTER, LIVER, S-9, AROCLOR 1254 (10%), Method: PREINCUBATION): inactive; negative
- mutagenic call (Test System: AMES SALMONELLA TYPHIMURIUM, Strain/Indicator: TA1537, Metabolic Activation: NONE, Method: PREINCUBATION): inactive; negative
- mutagenic call (Test System: AMES SALMONELLA TYPHIMURIUM, Strain/Indicator: TA1537, Metabolic Activation: RAT, LIVER, S-9, AROCLOR 1254 (10%), Method: PREINCUBATION): inactive; negative
- mutagenic call [10]: active; positive

Reference: PubChem BioAssay AID1259407 (Chemical Carcinogenesis Research Information System (CCRIS), 2018)
